Source: patent publication EP0799174B1, “BIOCIDAL ALCOHOLS, THEIR PRODUCTION AND THEIR USE” (SCHÜLKE & MAYR GMBH, priority 1994, dated 1996)

Experiments:
[1] = system: Germ mixture of Staphylococcus aureus, Staphylococcus epidermis, Escherichia coli, Klebsiella pneumoniae, Enterobacter gergoviae, Pseudomonas aeruginosa …; assay: Preservative test: weekly loading of the sample with germ suspension; format: cell-based; conditions: aromatic alcohol 0.5% in sulfosuccinate 12.0% / betaine 3.0% formulation
From the text: Standard formulation: • sulfosuccinate 12.0% • betaine 3.0% • aromatic alcohol 0.5% • re-fatting agent • skin care additives • thickener • dem. water to 100 Test germs: Germ mixture of Staphylococcus aureus, Staphylococcus epidermis, Escherichia coli, Klebsiella pneumoniae, Enterobacter gergoviae, Pseudomonas aeruginosa, Pseudomonas fluorescens, Pseudomonas putida, Aspergillus niger, Penicillium funiculosum, Candida albicans; Total germ count 10^8-10^9/ml. Test method: weekly loading of the sample with germ suspension; smear onto CS and Sabouraud agar. See also K.-H. Diehl, P. Oltmanns, J. Ramsbotham, Seife, Öle, Fette, Wachse 118 (1992) 546.
Data expressed semi-qualitatively: • - no growth < 10^2 CFU/g (CFU = colony-forming units) • + slight growth approx. 10^3 CFU/g • ++ moderate growth approx. 10^4-10^5 CFU/g • +++ heavy growth > 10^5 CFU/g

Ps. aeruginosa = assay: Quantitative surface test according to DGHM, alcoholic surface disinfectant; format: cell-based; conditions: additive (0.05% for single substances) in ethanol 25.0 % / 1-propanol 35.0 % formulation, germs deposited after approx. 20 minutes
From the text: Standard formulation: • ethanol (MEK denatured) 25.0 % • 1-propanol 35.0 % • perfume 0.02 % • benzotriazole 0.001 % • Marlipal 013/70 0.1% (isotridecanpolyethyleneglycol-(7)-ether = C13 oxo alcohol + 7 mol ethylene oxide) • active ingredient additive x% • dem. water to 100 Test germ: Ps. aeruginosa Test method:
Quantitative surface test according to DGHM (Deutsche Gesellschaft für Hygiene and Microbiology = German Association for Hygiene and Microbiology). In order to exclude the effectiveness of the readily volatile alcohol components (ethanol, 1-propanol), the preparations were deposited onto the surfaces and the germs were deposited after approx. 20 minutes. Test surfaces: PVC and OP tiles Data as reduction factors (log stages)

resident skin flora = assay: Skin antiseptic a): action against the resident skin flora; format: in vivo; conditions: formulation with 1.0% aromatic alcohol in 1-propanol 30.0%, 2-propanol 45.0%; concentration and time
[2] = Skin antiseptic a): suspension test according to DGHM; format: cell-based; conditions: formulation with 1.0% aromatic alcohol in 1-propanol 30.0%, 2-propanol 45.0%; concentration and time
[3] = system: Pseudomonas aeruginosa ATCC 15442; assay: Skin antiseptic b): quantitative suspension test according to DGHM; format: cell-based; conditions: 1.0% 8, formulation 1-propanol 15.0%, 2-propanol 30.0%
From the text: (§1) • 1-propanol 15.0% • 2-propanol 30.0% • aromatic alcohol 1.0% • dem. water to 100 [table]

[4] = system: Candida albicans ATCC 10231; assay: as above; format: cell-based; conditions: 1.0% 8, formulation 1-propanol 15.0%, 2-propanol 30.0%
From the text: as §1

[5] = system: Staphylococcus aureus ATCC 6538; assay: as above; format: cell-based; conditions: 1.0% 8, formulation 1-propanol 15.0%, 2-propanol 30.0%
From the text: as §1

OCCCc1ccccc1 [Alcohol 1, 3-phenyl propanol, reference compound]
growth, 1st week ([1]; 1st week): + (slight growth approx. 10^3 CFU/g)
growth, 2nd week ([1]; 2nd week): + (slight growth approx. 10^3 CFU/g)
growth, 3rd week ([1]; 3rd week): - (no growth < 10^2 CFU/g)
growth, 4th week ([1]; 4th week): - (no growth < 10^2 CFU/g)
growth, 5th week ([1]; 5th week): - (no growth < 10^2 CFU/g)
reduction factors (log stages) (Ps. aeruginosa; PVC, 30'): 0 log stages
reduction factors (log stages) (Ps. aeruginosa; PVC, 60'): 0 log stages
reduction factors (log stages) (Ps. aeruginosa; PVC, 240'): 0 log stages
reduction factors (log stages) (Ps. aeruginosa; Tiles, 30'): 0 log stages
reduction factors (log stages) (Ps. aeruginosa; Tiles, 60'): 0 log stages
reduction factors (log stages) (Ps. aeruginosa; Tiles, 240'): 0 log stages

CCCCCC(=Cc1ccccc1)CO [Alcohol 8, α-amyl cinnamyl alcohol]
action against the resident skin flora (resident skin flora): 100%, 15 seconds
values in the suspension test according to DGHM [2]: 50%, 30 seconds
reduction factors (log stages) ([3]; column 25, contact time 1'): 0 log stages
reduction factors (log stages) ([3]; column 25, contact time 2'): 0 log stages
reduction factors (log stages) ([3]; column 25, contact time 5'): 0 log stages
reduction factors (log stages) ([3]; column 25, contact time 30"): 0 log stages
reduction factors (log stages) ([3]; column 50, contact time 1'): >5.8 log stages
reduction factors (log stages) ([3]; column 50, contact time 2'): >5.7 log stages
reduction factors (log stages) ([3]; column 50, contact time 5'): >5.7 log stages
reduction factors (log stages) ([3]; column 50, contact time 30"): >5.6 log stages
reduction factors (log stages) ([3]; column 75, contact time 1'): >5.8 log stages
reduction factors (log stages) ([3]; column 75, contact time 2'): >5.7 log stages
reduction factors (log stages) ([3]; column 75, contact time 5'): >5.7 log stages
reduction factors (log stages) ([3]; column 75, contact time 30"): >5.6 log stages
reduction factors (log stages) ([4]; column 25, contact time 1'): 0.6 log stages
reduction factors (log stages) ([4]; column 25, contact time 2'): 1.1 log stages
reduction factors (log stages) ([4]; column 25, contact time 5'): 1.7 log stages
reduction factors (log stages) ([4]; column 25, contact time 30"): 0.5 log stages
reduction factors (log stages) ([4]; column 50, contact time 1'): 3.5 log stages
reduction factors (log stages) ([4]; column 50, contact time 2'): >4.9 log stages
reduction factors (log stages) ([4]; column 50, contact time 5'): >5.1 log stages
reduction factors (log stages) ([4]; column 50, contact time 30"): 2.7 log stages
reduction factors (log stages) ([4]; column 75, contact time 1'): >4.6 log stages
reduction factors (log stages) ([4]; column 75, contact time 2'): >4.9 log stages
reduction factors (log stages) ([4]; column 75, contact time 5'): >5.1 log stages
reduction factors (log stages) ([4]; column 75, contact time 30"): >4.6 log stages
reduction factors (log stages) ([5]; column 25, contact time 1'): 3.6 log stages
reduction factors (log stages) ([5]; column 25, contact time 2'): 4.7 log stages
reduction factors (log stages) ([5]; column 25, contact time 5'): >5.8 log stages
reduction factors (log stages) ([5]; column 25, contact time 30"): 2.8 log stages
reduction factors (log stages) ([5]; column 50, contact time 1'): >5.5 log stages
reduction factors (log stages) ([5]; column 50, contact time 2'): >5.9 log stages
reduction factors (log stages) ([5]; column 50, contact time 5'): >5.8 log stages
reduction factors (log stages) ([5]; column 50, contact time 30"): >5.6 log stages
reduction factors (log stages) ([5]; column 75, contact time 1'): >5.5 log stages
reduction factors (log stages) ([5]; column 75, contact time 2'): >5.9 log stages
reduction factors (log stages) ([5]; column 75, contact time 5'): >5.8 log stages
reduction factors (log stages) ([5]; column 75, contact time 30"): >5.6 log stages
